Test system: Caco-2 cells
Experiment: Transepithelial electrical resistance (TEER) of Caco-2 cell monolayers
Type: cell-based
Design: unit not given here
Conditions: for TEER 24 h: 24 h after experiment
Protocol: Caco-2 cells were obtained from the American Type Culture Collection (Manassas, Va.). Cells were seeded in culturing flasks and passaged in Dulbecco's Modified Eagle′ medium supplemented with 10% fetal bovine serum, 1% penicillin/streptomycin (100 U/ml and 100 μg/ml, respectively), 1% L-glutamine and 1% nonessential amino acids. Caco-2 cells were seeded onto tissue culture treated polycarbonate filters in 12-well Transwell plates (1.13 cm2, 0.4 μm pore size) at a density of 10^5 cells/well. Monolayers were grown in an atmosphere of 5% CO2-95% O2 at 37° C. Growth media were replaced every other day. The experiment was performed on day 10-14 after seeding of Caco-2 cells.
Before and during the experiment the transepithelial electrical resistance (TEER) of the cell monolayers was monitored. In selected experiments, the transport buffer were changed to culturing medium after end of experiment and the TEER measured 24 h after experiment. The TEER was measured with EVOM™ Epithelial Voltohmmeter connected to Chopsticks.

[1] = Table 9, insulin analogue A14E, B25H, B29K(N(eps)Octadecanedioyl-gGlu-OEG-OEG), desB30 human insulin + 0.5 mM fatty acid acylated amino acid
[2] = Table 12, comparison D- with L-counterparts, footnote: insulin analogue A1(Nα,Nα-Dimethyl), A14E, B1(Nα,Nα-dimethyl), B25H, B29K(N(eps)Octadecanedioyl-gGlu-OEG-OEG), desB30 human insulin
[3] = Table 12, comparison D- with L-counterparts
[4] = Table 10, L-amino acid counterparts
[5] = Table 11, insulin analogue A1(Nα,Nα-Dimethyl), A14E, B1(Nα,Nα-dimethyl), B25H, B29K(N(eps)Octadecanedioyl-gGlu-OEG-OEG), desB30 human insulin
[6] = Table 10, L-amino acid counterparts, insulin analogue A14E, B25H, B29K(N(eps)Octadecanedioyl-gGlu-OEG-OEG), desB30 human insulin

SMILES | TEER 60 min [1] | TEER 24 h (Table 9, in culturing medium) | TEER 60 min [2] | TEER 24 h [3] | TEER 24 h [4] | TEER 24 h (Table 10, L-amino acid counterparts, listed as N-decanoyl-L-Leucine) | TEER 24 h (Table 9, in culturing medium, listed as N-dodecanoyl-D-Leucine) | TEER 60 min [5] | TEER 24 h [5] | TEER 60 min [6]
CCCCCCCCCC(=O)N[C@H](CC(C)C)C(=O)O [N-decanoyl-D-leucine] | 93.8 | 100.3 | 93.8 | 100.3 | – | – | – | – | – | –
CCCCCCCCCC(=O)N[C@H](C(=O)O)[C@@H](C)CC [N-decanoyl-L-isoleucine, reference compound] | – | – | 58.3 | 102.4 | – | – | – | – | – | –
CCCCCCCCCC(=O)N[C@@H](CC(C)C)C(=O)O [N-decanoyl-L-leucine, reference compound] | – | – | 92.2 | 101.8 | 101.8 | 102.4 | – | – | – | –
CCCCCCCCCCCC(=O)N[C@@H](C(=O)O)[C@H](C)CC [N-dodecanoyl-D-isoleucine] | – | – | 48.3 | 101.4 | – | – | – | – | – | –
CCCCCCCCCCCC(=O)N[C@H](CC(C)C)C(=O)O [N-dodecanoyl-D-leucine] | – | 100.0 | 42.8 | 100 | – | – | 101.4 | 50.9 | 91.4 | –
CCCCCCCCCCCC(=O)N[C@H](Cc1ccccc1)C(=O)O [N-dodecanoyl-D-phenylalanine] | 37.6 | 108.4 | 37.6 | 108.4 | – | – | – | – | – | –
CCCCCCCCCCCC(=O)N1CCC[C@@H]1C(=O)O [N-dodecanoyl-D-proline] | 76.6 | 99.1 | 76.6 | 99.1 | – | – | – | – | – | –
CCCCCCCCCCCC(=O)N[C@@H](C(=O)O)C(C)C [N-dodecanoyl-D-valine] | 66.1 | 99.3 | 66.1 | 99.3 | – | – | – | – | – | –
CCCCCCCCCCCC(=O)N[C@@H](CC(C)C)C(=O)O [N-dodecanoyl-L-leucine, reference compound] | – | – | 47.8 | 107.9 | 107.9 | – | – | 57.4 | 91.7 | 47.8
CCCCCCCCCCCC(=O)N[C@@H](Cc1ccccc1)C(=O)O [N-dodecanoyl-L-phenylalanine, reference compound] | – | – | 36.6 | 100.4 | 100.4 | – | – | – | – | 36.6
CCCCCCCCCCCC(=O)N[C@H](C(=O)O)C(C)C [N-dodecanoyl-L-valine, reference compound] | – | – | 79.7 | 95.3 | 95.3 | – | – | – | – | 79.7
CCCCCCCCCCCCCCCC(=O)N[C@H](CC(=O)O)C(=O)O [N-hexadecanoyl-D-aspartic acid] | 24.1 | 112.2 | 24.1 | 112.2 | – | – | – | 74.7 | 87.0 | –
CCCCCCCCCCCCCCCC(=O)N[C@H](CCC(=O)O)C(=O)O [N-hexadecanoyl-D-glutamic acid] | 35.6 | 106.2 | 35.6 | 106.2 | – | – | – | – | – | –
CCCCCCCCCCCCCCCC(=O)N[C@@H](CC(=O)O)C(=O)O [N-hexadecanoyl-L-aspartic acid, reference compound] | – | – | 33.2 | 112.3 | 112.3 | – | – | 76.0 | 97.2 | 33.2
CCCCCCCCCCCCCCCC(=O)N[C@@H](CCC(=O)O)C(=O)O [N-hexadecanoyl-L-glutamic acid, reference compound] | – | – | 72.3 | 109.5 | 109.5 | – | – | – | – | 72.3
CCCCCCCCCCCCCC(=O)N[C@H](CC(=O)O)C(=O)O [N-tetradecanoyl-D-aspartic acid] | 74.2 | 96.1 | 74.2 | 96.1 | – | – | – | – | – | –
CCCCCCCCCCCCCC(=O)N[C@H](CCC(=O)O)C(=O)O [N-tetradecanoyl-D-glutamic acid] | 79.9 ± 2.9^¤ | 102.2 ± 1.9^¤ | 79.9 ± 2.9^¤ | 102.2 ± 1.9^¤ | – | – | – | – | – | –
CCCCCCCCCCCCCC(=O)N[C@H](Cc1c[nH]c2ccccc12)C(=O)O [N-tetradecanoyl-D-tryptophan] | 31.3 | 109.9 | 31.3 | 109.9 | – | – | – | – | – | –
CCCCCCCCCCCCCC(=O)N[C@H](Cc1ccc(O)cc1)C(=O)O [N-tetradecanoyl-D-tyrosine] | 44.4 | 125.3 | 44.4 | 125.3 | – | – | – | – | – | –
CCCCCCCCCCCCCC(=O)N[C@@H](CC(=O)O)C(=O)O [N-tetradecanoyl-L-aspartic acid, reference compound] | – | – | 77.1 | 100.2 | 100.2 | – | – | – | – | 77.1
CCCCCCCCCCCCCC(=O)N[C@@H](CCC(=O)O)C(=O)O [N-tetradecanoyl-L-glutamic acid, reference compound] | – | – | 82.0 ± 3.2^¤ | 103.1 ± 3.7^¤ | 103.1 ± 3.7^¤ | – | – | – | – | 82.0 ± 3.2^¤
CCCCCCCCCCCCCC(=O)N[C@@H](Cc1c[nH]c2ccccc12)C(=O)O [N-tetradecanoyl-L-tryptophan, reference compound] | – | – | 27.8 | 107.9 | 107.9 | – | – | – | – | 27.8
CCCCCCCCCCCCCC(=O)N[C@@H](Cc1ccc(O)cc1)C(=O)O [N-tetradecanoyl-L-tyrosine, reference compound] | – | – | 41.9 | 122.3 | 122.3 | – | – | – | – | 41.9
